PMC11324666, “Two novel in vitro assays to screen chemicals for their capacity to inhibit thyroid hormone transmembrane transporter proteins OATP1C1 and OAT4” (Archives of Toxicology, 2024)

What was measured:
[1] = target: T1, OAT4 (Homo sapiens, UniProt Q9NSA0); assay: MDCK-OAT4 TH uptake assay with 125I-T4 tracer; format: cell-based; details: for T4 uptake inhibition BMC20 (M), [CI]: concentration that inhibits 125I-T4 uptake by 20%, brackets = 95% CI; for T4 uptake inhibition BMC20 (M), [CI] / 125I-T4 uptake compared to the vehicle control (range finding): 10 nM T4, 20 min; for 125I-T4 uptake compared to the vehicle control (range finding): single concentration 10 or 100 µM, below 80% = positive hit
T1 construct: V5 (from pLenti6/V5-DEST); expressed in transfected cells; host or cells: MDCK-1 (lentiviral transduction, blasticidin selection)
T1 sequence (Q9NSA0 1-550): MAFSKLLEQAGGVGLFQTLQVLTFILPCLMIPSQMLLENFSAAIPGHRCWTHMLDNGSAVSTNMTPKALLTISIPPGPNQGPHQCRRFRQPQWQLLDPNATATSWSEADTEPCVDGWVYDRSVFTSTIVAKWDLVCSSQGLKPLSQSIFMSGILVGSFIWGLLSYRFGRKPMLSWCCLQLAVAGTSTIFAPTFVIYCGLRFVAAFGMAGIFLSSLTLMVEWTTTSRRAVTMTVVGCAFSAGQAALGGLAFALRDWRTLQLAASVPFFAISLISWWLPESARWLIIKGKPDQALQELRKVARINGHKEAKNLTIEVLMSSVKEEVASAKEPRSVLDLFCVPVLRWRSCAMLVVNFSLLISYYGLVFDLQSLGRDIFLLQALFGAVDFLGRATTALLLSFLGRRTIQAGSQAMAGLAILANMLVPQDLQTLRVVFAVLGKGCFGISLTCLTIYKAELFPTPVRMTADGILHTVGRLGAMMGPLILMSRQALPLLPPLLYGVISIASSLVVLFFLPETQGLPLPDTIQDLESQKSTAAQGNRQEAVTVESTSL
Experimental: Subsequently OAT4 in pENTR™/D-TOPO® Vector was shuffled into the pLenti6/V5-DEST vector (Thermo Fisher) using Gateway™ LR Clonase™ II Enzyme mix (Thermo Fisher) according to the manufacture’s protocol.
To generate an OAT4 stable cell line, MDCK-1 cells were plated in 12-well plates with full growth medium and transduced with fresh viral supernatants in the absence of antibiotics in medium. After 2 days, MDCK-1 cells transduced with OAT4 (MDCK-OAT4) or empty vector (MDCK-DEST) were selected in full growth medium supplemented with 2 µg/mL blasticidin and further maintained under blasticidin selection.
MDCK-OAT4 and MDCK-DEST cells were cultured in DMEM:F12 (L-glutamine, 15 mM HEPES) (Gibco) supplemented with (100 µg/mL penicillin + 100 µg/mL streptomycin), 10% fetal calf serum (Gibco) and 2 µg/mL blasticidin (Sigma). CHO-K1 OATP1C1 or WT cells were cultured in F12 nutrient mix (Gibco) supplemented with (100 µg/mL penicillin + 100 µg/mL streptomycin), 10% fetal calf serum (Gibco) and […] G418 (Sigma). All cell cultures were incubated at 37 °C with 5% CO2 saturation until 80% confluency. MDCK-OAT4 and MDCK-DEST cells were seeded in 96 wells plate at a density of 4 × 10^5 cells in 100 µL medium per well and incubated for 24 h before the start of the MDCK-OAT4 TH uptake assay. CHO-K1 OATP1C1 and WT cells were seeded in 96 wells plate at a density of 3 × 10^5 cells in 100 µL medium per well 72 h before the CHO-K1 OATP1C1 TH uptake assay. Medium from CHO-K1 OATP1C1 or WT assay plates was changed to serum-free F12 medium containing 5 mM sodium-butyrate 24 h before start of the CHO-K1 OATP1C1 TH uptake assay to increase transfected expression of SV-40 promotor plasmids.
Subsequently 10 µL of a tenfold stock of test compound in uptake buffer (solvent concentration 1% v/v) was added to each well. […] Cells were exposed at 37 °C for 20 min (MDCK-OAT4) or 30 min (CHO-K1 OATP1C1), unless stated differently. After exposure, cells were immediately washed with ice-cold PBS supplemented with 0.1% bovine serum albumin (BSA). Subsequently, cells were lysed in 50 µL of 0.1 M NaOH under continuous shaking at room temperature. After 20 min, cell lysates were manually transferred into separate 5 mL polypropylene tubes. One tube was also prepared with 10 µL of the T4 tracer solution. Radioactivity was measured in a Wizard^2 gamma counter (Perkin Elmer).
For the CHO-K1 OATP1C1 TH uptake assay total of 29 chemicals (Table 1) were selected for the EDC screening based on available literature data. […] The same chemicals were selected for the MDCK-OAT4 TH uptake assay, with the exception of BPF, VRP and TCS. […] The THTMT TH uptake assay was then performed as described earlier. […] A concentration of 100 µM ICG was used as a reference chemical for OATP1C1 and 100 µM LESI for OAT4. At least three independent experiments were performed for each chemical. Each individual experiment contained three technical replicates of each control and concentration tested.
Raw values were normalized to the total amount of radioactivity in the T4 tracer solution. These values were expressed as a percentage of total radioactivity added (or uptake percentage) and used for all further data analysis. Statistically significant differences between the T4 uptake of transfected and wild type cells, in the presence or absence of inhibitor, were determined by two-way ANOVA (α = 5%, two-sided). […] In brief, uptake values were normalized to the median response of the vehicle and positive controls for each plate. […] Statistical analysis were performed using GraphPad Prism version 8 for Windows (GraphPad Software, San Diego, California USA) and SAS 9.3 (SAS Institute, Cary NC).

[2] = system: CHO-K1 OATP1C1 cells; details: for Cytotoxicity IC10: concentration that inhibits cell viability by 10%, CHO-K1 OATP1C1 cells, 30 min exposure
Experimental: Cell viability was assessed through the quantitation of ATP present in cells using the commercially available CellTiter-Glo® luminescent cell viability assay and performed according to the manufacturer’s instruction (Promega, Leiden, the Netherlands). Briefly, cells were seeded as described earlier in opaque-walled clear-bottom 96 well plates. On the day of the experiment, each well was washed with 200 µL phosphate buffered saline (PBS) and exposed to 80 µL of uptake buffer, 10 µL of a tenfold stock of test compound solved in uptake buffer or control and 10 µL of T4 (final concentration 10 nM). 0.1% DMSO was used as a solvent control, while 10% DMSO was used as a positive control. After exposure for the indicated times similar to THTMT TH uptake assay, cells were immediately washed with ice-cold PBS + 0.1%BSA and exposed to 100 µL of the CellTiter-Glo® Reagent. Plates were then shaken on an orbital shaker for 2 min and left to incubate at room temperature for 10 min. Luminescence was measured on a BioTek Cytation 5 microplate reader. […] Each individual experiment was repeated at least twice and contained three technical replicates of each control and concentration tested.
Figure S1. […] Blue dots indicate the plate medians from three or four independent experiments, all control and chemical concentrations were tested in triplicates per plate.

| Compound | T4 uptake inhibition BMC20 (M), [CI] [1] | Cytotoxicity IC10 [2] | 125I-T4 uptake compared to the vehicle control (range finding) [1] | cytotoxic effects ([2]; at concentrations of the uptake assay, Figure S1) | BMC20 (20% reduction in T4 uptake) [1] |
| --- | --- | --- | --- | --- | --- |
| O=c1c(O)c(-c2ccc(O)c(O)c2)oc2cc(O)cc(O)c12 [Quercetin] | 1.23E−05 [4.77E−06; 3.16E−05] M | > 100 µM |  |  |  |
| CC(C)(c1cc(Br)c(O)c(Br)c1)c1cc(Br)c(O)c(Br)c1 [Tetrabromobisphenol A, Tetrabromobisphenol-A] | 6.49E−07 [4.32E−07; 9.74E−07] M | > 0.3 µM | below 80% |  |  |
| O=C(O)C(F)(F)C(F)(F)C(F)(F)C(F)(F)C(F)(F)C(F)(F)C(F)(F)F [Perfluorooctanoic acid] | 1.38E−06 [4.27E−07; 4.44E−06] M | > 100 µM |  |  |  |
| CCCN(CCC)S(=O)(=O)c1ccc(C(=O)O)cc1 [Probenecid, reference compound] | 3.65E−05 [2.69E−05; 4.61E−05] M | > 100 µM |  |  |  |
| Oc1ccc(C(c2ccc(O)cc2)(C(F)(F)F)C(F)(F)F)cc1 [Bisphenol AF, Bisphenol-AF] | 5.39E−06 [1.65E−06; 1.76E−05] M | 0.909 µM |  | confounded by cytotoxic effects |  |
| O=S(=O)([O-])c1cc(S(=O)(=O)O)ccc1C1=c2cc3c4c(c2Oc2c1cc1c5c2CCCN5CCC1)CCC[N+]=4CCC3 [Sulforhodamine 101, reference compound] |  | > 10 µM | ≥ 80% |  |  |
| O=C1OC(c2ccc(O)c(S(=O)(=O)O)c2)(c2ccc(O)c(S(=O)(=O)O)c2)c2c(Br)c(Br)c(Br)c(Br)c21 [Bromosulfophthalein, reference compound] | 7.25E−08 [3.85E−08; 1.36E−07] M | > 100 µM | below 80% |  | 0.072 µM |
| CO[C@H]1/C=C/O[C@@]2(C)Oc3c(C)c(O)c4c(O)c(c(/C=N/N5CCN(C)CC5)c(O)c4c3C2=O)NC(=O)/C(C)=C\C=C\[C@H](C)[C@H](O)[C@@H](C)[C@@H](O)[C@@H](C)[C@H](OC(C)=O)[C@@H]1C [Rifampicin, reference compound] | 1.02E−05 [4.85E−06; 2.14E−05] M | > 100 µM |  |  |  |
| Oc1c(Cl)c(Cl)c(Cl)c(Cl)c1Cl [Pentachlorophenol] | 2.65E−05 [2.17E−05; 3.23E−05] M | > 18.5 µM |  |  |  |
| O=S(=O)(O)C(F)(F)C(F)(F)C(F)(F)C(F)(F)C(F)(F)C(F)(F)C(F)(F)C(F)(F)F [Perfluorooctanesulfonic acid] | 1.44E−06 [4.08E−07; 5.05E−06] M | > 100 µM | below 80% |  |  |
| Oc1ccc(Cc2ccc(O)cc2)cc1 [Bisphenol F, Bisphenol-F] |  | > 100 µM | below 80% |  |  |
| COc1cc([C@@H]2Oc3c(O)cc([C@H]4Oc5cc(O)cc(O)c5C(=O)[C@@H]4O)cc3[C@H]2CO)ccc1O [Silychristin, reference compound] |  | > 10 µM | ≥ 80% |  |  |
| CC1(C)C(/C=C/C=C/C=C/C=C2\N(CCCCS(=O)(=O)O)c3ccc4ccccc4c3C2(C)C)=[N+](CCCCS(=O)(=O)[O-])c2ccc3ccccc3c21 [Indocyanine green, reference compound] | 1.68E−05 [1.20E−05; 2.33E−05] M | > 100 µM |  |  |  |
